According to patent publication US11091482B2, “Isoxazolyl-carbonyloxy azabicyclo[3.2.1]octanyl compounds as FXR activators” (ARDELYX, INC., priority 2016, dated 2021):

Tests used:
[1] = biological target: ligand binding domain of human FXR (Homo sapiens (Human), UniProt Q96RI1); assay: FXR ligand binding assay (LanthaScreen FRET); settings: for FXR pEC50 / % Efficacy: FXR ligand binding assay; for FXR pEC50: -log EC50; for % Efficacy: extent of activation relative to GW4064; for Emax: read-out: % Efficacy;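 for all read-outs here: TR-FRET coactivator recruitment: ligand-induced binding of fluorescein-labelled SRC2-2 peptide to GST-tagged FXR LBD detected via Tb anti-GST antibody, serial compound dilutions, 3-parameter logistic fit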
[2] = biological target: human Farnesoid X receptor ligand-binding domain/Gal4 DNA binding domain chimera (Homo sapiens (Human), UniProt Q96RI1); assay: Cell-based FXR beta-lactamase reporter assay (FXR-UAS-bla HEK 293T cells); settings: for FXR pEC50 / EC50 / % Efficacy: cellular FXR beta-lactamase reporter assay; for FXR pEC50 / EC50: -log EC50; for Emax: HEK-293T, read-out: % Efficacy; for EC50: read-out: FXR pEC50 (converted); for % Efficacy: extent of activation relative to GW4064
Description: FXR activation was measured using a cell line and procedure obtained from Life Technologies (Cat #K1691). FXR-UAS-bla HEK 293T cells contain a human Farnesoid X receptor ligand-binding domain/Gal4 DNA binding domain chimera stably integrated into the CellSensor® UAS-bla HEK 293T cell line. The CellSensor® UAS-bla HEK 293T contains a beta-lactamase reporter gene under control of a UAS response element stably integrated into HEK 293T cells. Activation of FXR by bound ligands results in transcriptional activation of the beta-lactamase reporter gene, which is detected via assay of beta-lactamase activity. Cells are harvested and diluted into assay medium containing phenol red-free DMEM supplemented with 2% Charcoal-stripped FBS, pyruvate, non-essential amino acids. Cells are then transferred to a 384 well assay plate. Test compounds are dissolved in DMSO and a 3-fold serial dilution series is generated, then further diluted into assay medium. […] A FRET-based […] is loaded into cells as its acetomethoxy ester. Intracellular esterases liberate free CCF4, a cephalosporin core linking 7-hydroxycoumarin to fluorescein. In the presence of beta-lactamase activity produced in the presence of FXR agonists, cleavage of CCF4 spatially separates the two dyes and disrupts FRET, so that exciting the coumarin at 409 nm now produces a blue fluorescence signal at 447 nm. The change in FRET signal is plotted against the test compound concentration and fit to a 3-parameter logistical equation.

human Farnesoid X receptor ligand-binding domain/Gal4 DNA binding domain chimera, sequence (Q96RI1 262-486, stated change not applied): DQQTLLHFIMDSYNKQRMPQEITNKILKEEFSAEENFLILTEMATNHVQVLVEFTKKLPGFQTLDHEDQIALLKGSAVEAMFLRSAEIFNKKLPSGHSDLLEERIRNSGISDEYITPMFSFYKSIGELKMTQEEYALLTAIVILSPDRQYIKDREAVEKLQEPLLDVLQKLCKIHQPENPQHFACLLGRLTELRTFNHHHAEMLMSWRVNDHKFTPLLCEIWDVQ
ligand binding domain of human FXR, sequence (Q96RI1 262-486): as the sequence (Q96RI1 262-486, stated change not applied) above

% Efficacy [1] [%] | SMILES | FXR pEC50 [1] | FXR pEC50 [2] | Emax [1] [%] | Emax [2] [%] | EC50 [2] [nM] | % Efficacy [2] [%]
22 | COC12CCC(c3noc(C4CC4)c3C(=O)O[C@@H]3C[C@H]4CC[C@@H](C3)N4c3nc4c(OC(F)(F)F)cc(C(=O)O)cc4s3)(CC1)CC2 [Compound I-58, 2-[(1R,3S,5S)-3-(5-cyclopropyl-3-{4-methoxybicyclo[2.2.2]octan-1-yl}-1,2-oxazole-4-carbonyloxy)-8-azabicyclo[3.2.1]octan-8-yl]-4-(trifluoromethoxy)-1,3-benzothiazole-6-carboxylic Acid] | >4.4 | >4.5 |  |  |  | 
 | O=C(O)c1cc(C2CC2)c2nc(N3[C@@H]4CC[C@H]3C[C@@H](OC(=O)c3c(-c5c(Cl)cccc5Cl)noc3C3CC3)C4)sc2c1 [Compound I-12, 2-[(1R,3R,5S)-3-[5-cyclopropyl-3-(2,6-dichlorophenyl)-1,2-oxazole-4-carbonyloxy]-8-azabicyclo[3.2.1]octan-8-yl]-4-(cyclopropyl)-1,3-benzothiazole-6-carboxylic Acid] |  |  | 125 | 112 | 7.94 | 
 | O=C(O)c1ccc(N2[C@@H]3CC[C@H]2C[C@@H](OC(=O)c2c(-c4c(Cl)cccc4Cl)noc2C2CC2)C3)cc1C(F)(F)F [Compound I-37, 4-[(1R,3R,5S)-3-[5-cyclopropyl-3-(2,6-dichlorophenyl)-1,2-oxazole-4-carbonyloxy]-8-azabicyclo[3.2.1]octan-8-yl]-2-(trifluoromethyl)benzoic acid] | 7.7 |  | 50 | 93 | 100 | 
 | COc1cc(C(=O)O)cc2sc(N3[C@@H]4CC[C@H]3C[C@@H](OC(=O)c3c(-c5c(Cl)cccc5Cl)noc3C3CC3)C4)nc12 [Compound I-8, 2-[(1R,3R,5S)-3-[5-Cyclopropyl-3-(2,6-dichlorophenyl)-1,2-oxazole-4-carbonyloxy]-8-azabicyclo[3.2.1]octan-8-yl]-4-methoxy-1,3-benzothiazole-6-carboxylic Acid] |  |  | 105 | 114 | 3.98 | 
128 | O=C(NS(=O)(=O)CC1CC1)c1ccc(N2[C@@H]3CC[C@H]2C[C@H](OC(=O)c2c(-c4c(Cl)cccc4Cl)noc2C2CC2)C3)cc1 [Compound I-49, (1R,3S,5S)-8-[4-(cyclopropylmethanesulfonylcarbamoyl)phenyl]-8-azabicyclo[3.2.1]octan-3-yl 5-cyclopropyl-3-(2,6-dichlorophenyl)-1,2-oxazole-4-carboxylate] | 8 | 8.1 |  |  |  | 107
 | O=C(O)c1cc(F)c2nc(N3[C@@H]4CC[C@H]3C[C@@H](OC(=O)c3c(C56CCC(CC5)CC6)noc3C3CC3)C4)sc2c1 [Compound I-20, 2-[(1R,3R,5S)-3-(3-{Bicyclo[2.2.2]octan-1-yl}-5-cyclopropyl-1,2-oxazole-4-carbonyloxy)-8-azabicyclo[3.2.1]octan-8-yl]-4-fluoro-1,3-benzothiazole-6-carboxylic Acid] | >4.5 | 6.6 |  |  |  | 22
 | COc1cc2nc(N3[C@@H]4CC[C@H]3C[C@@H](OC(=O)c3c(-c5c(F)cccc5F)noc3C3CC3)C4)sc2cc1C(=O)O [Compound I-18, 2-[(1R,3R,5S)-3-[5-cyclopropyl-3-(2,6-difluorophenyl)-1,2-oxazole-4-carbonyloxy]-8-azabicyclo[3.2.1]octan-8-yl]-5-methoxy-1,3-benzothiazole-6-carboxylic Acid] |  |  | 66 | 99 | 251 | 
 | N#Cc1ccc(N2[C@@H]3CC[C@H]2C[C@@H](OC(=O)c2c(-c4c(Cl)cccc4Cl)noc2C2CC2)C3)cc1O [Compound I-53, (1R,3R,5S)-8-(4-cyano-3-hydroxyphenyl)-8-azabicyclo[3.2.1]octan-3-yl 5-cyclopropyl-3-(2,6-dichlorophenyl)-1,2-oxazole-4-carboxylate] |  |  | 58 | 81 | 251 | 
 | COc1cc(C(=O)O)cc2sc(N3[C@@H]4CC[C@H]3C[C@@H](OC(=O)c3c(-c5c(F)cccc5F)noc3C3CC3)C4)nc12 [Compound I-17, 2-[(1R,3R,5S)-3-[5-cyclopropyl-3-(2,6-difluorophenyl)-1,2-oxazole-4-carbonyloxy]-8-azabicyclo[3.2.1]octan-8-yl]-4-methoxy-1,3-benzothiazole-6-carboxylic Acid] |  |  | 44 | 112 | 126 | 
 | O=C(O)c1cc(OC(F)(F)F)c2nc(N3[C@@H]4CC[C@H]3C[C@@H](OC(=O)c3c(-c5c(Cl)cccc5Cl)noc3C3CC3)C4)sc2c1 [Compound I-9, 2-[(1R,3R,5S)-3-[5-cyclopropyl-3-(2,6-dichlorophenyl)-1,2-oxazole-4-carbonyloxy]-8-azabicyclo[3.2.1]octan-8-yl]-4-(trifluoromethoxy)-1,3-benzothiazole-6-carboxylic Acid] |  |  | 136 | 119 | 3.16 | 
147 | O=C(O)c1cc(F)c2nc(N3[C@@H]4CC[C@H]3C[C@@H](OC(=O)c3c(-c5ccccc5OC(F)(F)F)noc3C3CC3)C4)sc2c1 [Compound I-14, 2-[(1R,3R,5S)-3-{5-cyclopropyl-3-[2-(trifluoromethoxy)phenyl]-1,2-oxazole-4-carbonyloxy}-8-azabicyclo[3.2.1]octan-8-yl]-4-fluoro-1,3-benzothiazole-6-carboxylic Acid] | 7.6 | 8.1 |  |  |  | 116
 | Cn1cc(C(=O)O)c2ccc(N3[C@@H]4CC[C@H]3C[C@@H](OC(=O)c3c(-c5c(Cl)cccc5Cl)noc3C3CC3)C4)cc21 [Compound I-28, 6-[(1R,3R,5S)-3-[5-cyclopropyl-3-(2,6-dichlorophenyl)-1,2-oxazole-4-carbonyloxy]-8-azabicyclo[3.2.1]octan-8-yl]-1-methyl-1H-indole-3-carboxylic Acid] |  |  | 94 | 117 | 25.1 | 
 | O=C(OCCN(CCO)CCO)c1cc(F)c2nc(N3[C@@H]4CC[C@H]3C[C@@H](OC(=O)c3c(-c5c(Cl)cccc5Cl)noc3C3CC3)C4)sc2c1 [Compound I-63, 2-[bis(2-hydroxyethyl)amino]ethyl 2-[(1R,3R,5S)-3-[5-cyclopropyl-3-(2,6-dichlorophenyl)-1,2-oxazole-4-carbonyloxy]-8-azabicyclo[3.2.1]octan-8-yl]-4-fluoro-1,3-benzothiazole-6-carboxylate] | >6.5 |  |  | 112 | 10000 | 

SMILES | % Efficacy [1] [%] | FXR pEC50 [1] | FXR pEC50 [2] | Emax [1] [%] | Emax [2] [%] | EC50 [2] [nM] | % Efficacy [2] [%]
CCCS(=O)(=O)NC(=O)c1ccc(N2[C@@H]3CC[C@H]2C[C@@H](OC(=O)c2c(-c4c(Cl)cccc4Cl)noc2C2CC2)C3)cc1 [Compound I-45, (1R,3R,5S)-8-{4-[(propane-1-sulfonyl)carbamoyl]phenyl}-8-azabicyclo[3.2.1]octan-3-yl 5-cyclopropyl-3-(2,6-dichlorophenyl)-1,2-oxazole-4-carboxylate] | 130 | 8.3 | 8.6 |  |  |  | 
O=C(O)c1cc(F)c2nc(N3[C@@H]4CC[C@H]3C[C@@H](OC(=O)c3c(-c5c(F)cccc5F)noc3C3CC3)C4)sc2c1 [Compound I-16, 2-[(1R,3R,5S)-3-[5-cyclopropyl-3-(2,6-difluorophenyl)-1,2-oxazole-4-carbonyloxy]-8-azabicyclo[3.2.1]octan-8-yl]-4-fluoro-1,3-benzothiazole-6-carboxylic Acid] | 47 | 7.4 | 6.7 |  |  |  | 110
